Patent US20130096105A1, “ArylSulfonamide Based Matrix Metalloprotease Inhibitors” (NOVARTIS AG, priority 2008, published 2013)

Key:
Gelatinase (MMP-2) = target: T1, Gelatinase (MMP-2) (Homo sapiens, UniProt P08253); experiment: Gelatinase (MMP-2) inhibitory activity, fluorogenic peptide substrate cleavage; assay type: biochemical; conditions: read-out: MMP02 IC50
T1 sequence (P08253 110-660): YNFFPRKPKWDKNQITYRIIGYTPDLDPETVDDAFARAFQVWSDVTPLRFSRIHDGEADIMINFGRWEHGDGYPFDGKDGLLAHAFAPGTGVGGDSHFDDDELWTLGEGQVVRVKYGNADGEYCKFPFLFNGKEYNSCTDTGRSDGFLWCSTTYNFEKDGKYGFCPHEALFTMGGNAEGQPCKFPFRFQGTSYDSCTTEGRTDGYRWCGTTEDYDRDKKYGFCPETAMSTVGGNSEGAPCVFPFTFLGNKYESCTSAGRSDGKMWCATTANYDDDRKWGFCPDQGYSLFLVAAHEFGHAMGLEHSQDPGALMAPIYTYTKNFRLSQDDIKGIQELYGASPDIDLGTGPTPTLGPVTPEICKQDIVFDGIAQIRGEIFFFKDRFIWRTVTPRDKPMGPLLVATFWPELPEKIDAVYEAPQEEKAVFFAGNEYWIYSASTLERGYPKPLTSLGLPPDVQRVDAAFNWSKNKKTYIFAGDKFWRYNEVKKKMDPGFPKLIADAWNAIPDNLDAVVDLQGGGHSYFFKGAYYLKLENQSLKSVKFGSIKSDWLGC
Method: (§1) Gelatinase (MMP-2) inhibitory activities can be determined as follows: Stock solutions of substrate (MCA-Lys-Pro-Leu-Gly-Leu-Dpa-Ala-Arg-NH2) are prepared in DMSO at a concentration of 1.4 mM. Stock solutions of inhibitors (0.03 μM-3 mM) are also prepared in DMSO. The inhibitors are diluted into the assay solutions, and the controls use an equal volume of DMSO so that the final DMSO concentration from the inhibitor and substrate dilutions in all assays is 1.0%. Assays are performed in an assay buffer (100 mM sodium chloride, 10 μM ZnCl. Sub 2, 10 mM CaCl2, 100 mM Tris-Cl pH7.5, 0.05% Brij-35), containing 1.0% DMSO from the substrate and inhibitor additions. The substrate concentration used in the assays is 5 μM. The assays are carried out at 20-25° C. The fluorescence changes, as a result of substrate cleavage, are monitored using an excitation wavelength of 325 nm and an emission wavelength of 405 nm. The reaction mixtures are added in duplicate into appropriate wells of a 384-well assay plate. The reaction mixtures are preincubated with the inhibitors for 60 minutes The reactions are started by the addition of MMP substrate, and the fluorescence intensity changes are measured after 60 minutes The apparent enzyme activity in the presence of an inhibitor is then compared with that in the absence of any inhibitor to determine the inhibition effect of the inhibitor. These techniques are within the knowledge of one skilled in the art. The inhibition results are expressed as the inhibitor concentrations required to effect 50% inhibition (IC50) of the enzyme activity, as compared with the control (non-inhibited) reactions.

Collagenase-3 (MMP-13) = Collagenase-3 (MMP-13) (Homo sapiens, UniProt P45452); experiment: Collagenase-3 (MMP-13) inhibitory activity, fluorogenic peptide substrate cleavage; assay type: biochemical; conditions: read-out: MMP13 IC50
Method: as §1
Collagenase-3 (MMP-13) inhibitory activity is determined as described above. Recombinant pro-collagenase-3 is activated with 1 mM APMA, and stored in the assay buffer after extensive dialysis in the assay buffer.

| SMILES | IC50 (Gelatinase (MMP-2)) [µM] | IC50 (Collagenase-3 (MMP-13)) [µM] |
| --- | --- | --- |
| NS(=O)(=O)c1cc(C(=O)c2ccc(C#Cc3ccccc3)cc2)ccc1Cl [Example 32, 2-Chloro-5-(4-phenylethynyl-benzoyl)-benzenesulfonamide] | 8.3 | 10 |
| CCCNC(=O)c1ccc(C(=O)c2ccc(Cl)c(S(N)(=O)=O)c2)cc1 [Example 33, 4-(4-Chloro-3-sulfamoyl-benzoyl)-N-propyl-benzamide] | > 30 | 2.59 |
| NS(=O)(=O)c1cc(C(=O)c2ccc(C(=O)Nc3ccccc3)cc2)ccc1Cl [Example 34, 4-(4-Chloro-3-sulfamoyl-benzoyl)-N-phenyl-benzamide] | 2.51 | 4.71 |
| NS(=O)(=O)c1cc(C(=O)c2ccc(C(=O)NCc3ccccc3)cc2)ccc1Cl [Example 35, N-Benzyl-4-(4-chloro-3-sulfamoyl-benzoyl)-benzamide] | 6.89 | 0.84 |
| NS(=O)(=O)c1cc(C(=O)c2ccc(C(=O)NCCc3ccccn3)cc2)ccc1Cl [Example 36, 4-(4-Chloro-3-sulfamoyl-benzoyl)-N-(2-pyridin-2-yl-ethyl)-benzamide] | 14.9 | 8.54 |
| NS(=O)(=O)c1cc(C(=O)c2ccc(C(=O)NCCCCc3ccccc3)cc2)ccc1Cl [Example 37, 4-(4-Chloro-3-sulfamoyl-benzoyl)-N-(4-phenyl-butyl)-benzamide] | 22.8 | 8.9 |
| NS(=O)(=O)c1cc(C(=O)c2ccc(-c3ccsc3)cc2)ccc1Cl [Example 40, 2-Chloro-5-(4-thiophen-3-yl-benzoyl)-benzenesulfonamide] | > 30 | 7.06 |
| COc1ccc(C(=O)c2ccc(Cl)c(S(N)(=O)=O)c2)c(OC)c1 [Example 48, 2-Chloro-5-(2,4-dimethoxy-benzoyl)-benzenesulfonamide] | > 30 | 25.3 |
| NS(=O)(=O)c1cc(C(=O)c2ccccc2)ccc1Cl [Example 49, 5-Benzoyl-2-chloro-benzenesulfonamide] | > 30 | 24.8 |
| NS(=O)(=O)c1cc(C(=O)c2ccc(F)cc2)ccc1Cl [Example 51, 2-Chloro-5-(4-fluoro-benzoyl)-benzenesulfonamide] | 14.6 | 18.7 |
| CC(C)(C)NC(=O)c1ccc(C(=O)c2ccc(Cl)c(S(N)(=O)=O)c2)cc1 [Example 52, N-tert-Butyl-4-(4-chloro-3-sulfamoyl-benzoyl)-benzamide] | 29.1 | 21.3 |
| NS(=O)(=O)c1cc(C(=O)c2ccc(C(=O)NCCc3ccccc3)cc2)ccc1Cl [Example 54, 4-(4-Chloro-3-sulfamoyl-benzoyl)-N-phenethyl-benzamide] | 23.4 | 27.1 |
| NS(=O)(=O)c1cc(C(=O)c2ccc(O)cc2)ccc1Cl [Example 55, 2-Chloro-5-(4-hydroxy-benzoyl)-benzenesulfonamide] | 25.5 | 27.5 |
| CC(C)COc1ccc(C(=O)c2ccc(Cl)c(S(N)(=O)=O)c2)cc1 [Example 58, 2-Chloro-5-(4-isobutoxy-benzoyl)-benzenesulfonamide] | > 30 | 24.2 |
| NS(=O)(=O)c1cc(C(=O)c2ccc(-c3ccccc3F)cc2)ccc1Cl [Example 64, 2-Chloro-5-(2′-fluoro-biphenyl-4-carbonyl)-benzenesulfonamide] | 4.05 | 7.55 |
| NS(=O)(=O)c1cc(C(=O)c2ccc(-c3cccc(Br)c3)cc2)ccc1Cl [Example 67, 5-(3′-Bromo-biphenyl-4-carbonyl)-2-chloro-benzenesulfonamide] | 10.2 | 5.29 |
| NS(=O)(=O)c1cc(C(=O)c2ccc(-c3cccc([N+](=O)[O-])c3)cc2)ccc1Cl [Example 68, 2-Chloro-5-(3′-nitro-biphenyl-4-carbonyl)-benzenesulfonamide] | 3.44 | 3.15 |
| CC(=O)Nc1cccc(-c2ccc(C(=O)c3ccc(Cl)c(S(N)(=O)=O)c3)cc2)c1 [Example 70, N-[4′-(4-Chloro-3-sulfamoyl-benzoyl)-biphenyl-3-yl]-acetamide] | 11.4 | 4.01 |
| NS(=O)(=O)c1cc(C(=O)c2ccc(-c3ccccc3)cc2)ccc1Cl [Example 76, 5-(Biphenyl-4-carbonyl)-2-chloro-benzenesulfonamide] | 21.7 | 12 |
| Cc1cccc(-c2ccc(C(=O)c3ccc(Cl)c(S(N)(=O)=O)c3)cc2)c1 [Example 77, 2-Chloro-5-(3′-methyl-biphenyl-4-carbonyl)-benzenesulfonamide] | 29.1 | 23.1 |

Compounds with a lower IC50 (Gelatinase (MMP-2)), results first:

| IC50 (Gelatinase (MMP-2)) [µM] | IC50 (Collagenase-3 (MMP-13)) [µM] | SMILES |
| --- | --- | --- |
| 0.3 | 0.38 | NS(=O)(=O)c1cc(C(=O)c2ccc(-c3ccnc(Cl)c3)cc2)ccc1Cl [Example 43, 2-Chloro-5-[4-(2-chloro-pyridin-4-yl)-benzoyl]-benzenesulfonamide] |
| 0.62 | 0.56 | N#Cc1ccc(C(=O)c2ccc(Cl)c(S(N)(=O)=O)c2)cc1 [Example 44, 2-Chloro-5-(4-cyano-benzoyl)-benzenesulfonamide] |
| 0.053 | 0.08 | Cc1ccc(C(=O)c2ccc(Cl)c(S(N)(=O)=O)c2)c(Br)c1 [Example 45, 5-(2-Bromo-4-methyl-benzoyl)-2-chloro-benzenesulfonamide] |
| 0.15 | 0.21 | Cc1cc(Br)ccc1C(=O)c1ccc(Cl)c(S(N)(=O)=O)c1 [Example 46, 5-(4-Bromo-2-methyl-benzoyl)-2-chloro-benzenesulfonamide] |
| 1.16 | 2.63 | NS(=O)(=O)c1cc(C(=O)c2ccc(-c3ccccc3)cc2)ccc1Cl [Example 59, 5-(Biphenyl-4-carbonyl)-2-chloro-benzenesulfonamide] |
| 1.1 | 1.02 | Cc1ccc(-c2ccc(C(=O)c3ccc(Cl)c(S(N)(=O)=O)c3)cc2)cc1 [Example 61, 2-Chloro-5-(4′-methyl-biphenyl-4-carbonyl)-benzenesulfonamide] |
| 2.21 | 0.83 | NS(=O)(=O)c1cc(C(=O)c2ccc(-c3ccc(C(F)(F)F)cc3)cc2)ccc1Cl [Example 62, 2-Chloro-5-(4′-trifluoromethyl-biphenyl-4-carbonyl)-benzenesulfonamide] |
| 2.05 | 0.38 | CCc1ccc(-c2ccc(C(=O)c3ccc(Cl)c(S(N)(=O)=O)c3)cc2)cc1 [Example 63, 2-Chloro-5-(4′-ethyl-biphenyl-4-carbonyl)-benzenesulfonamide] |
| 1.18 | 1.61 | NS(=O)(=O)c1cc(C(=O)c2ccc(-c3ccc(F)cc3)cc2)ccc1Cl [Example 65, 2-Chloro-5-(4′-fluoro-biphenyl-4-carbonyl)-benzenesulfonamide] |
| 0.72 | 0.63 | NS(=O)(=O)c1cc(C(=O)c2ccc(-c3ccc(Cl)cc3)cc2)ccc1Cl [Example 66, 2-Chloro-5-(4′-chloro-biphenyl-4-carbonyl)-benzenesulfonamide] |
| 1.09 | 1.4 | O=C(c1ccc(-c2cccc(CO)c2)cc1)c1ccc(Cl)c(S(=O)(=O)O)c1 [Example 71, 2-Chloro-5-(3′-hydroxymethyl-biphenyl-4-carbonyl)-benzenesulfonic acid] |
| 0.18 | 0.13 | NS(=O)(=O)c1cc(C(=O)c2ccc(-c3ccc(C=O)cc3)cc2)ccc1Cl [Example 72, 2-Chloro-5-(4′-formyl-biphenyl-4-carbonyl)-benzenesulfonamide] |
| 0.98 | 0.61 | NS(=O)(=O)c1cc(C(=O)c2ccc(-c3ccc(C(=O)O)cc3)cc2)ccc1Cl [Example 73, 4′-(4-Chloro-3-sulfamoyl-benzoyl)-biphenyl-4-carboxylic acid] |
| 0.93 | 0.24 | COC(=O)c1ccc(-c2ccc(C(=O)c3ccc(Cl)c(S(N)(=O)=O)c3)cc2)cc1 [Example 74, 4′-(4-Chloro-3-sulfamoyl-benzoyl)-biphenyl-4-carboxylic acid methyl ester] |
| 0.27 | 0.35 | CN(C)c1ccc(C(=O)c2ccc(Cl)c(S(N)(=O)=O)c2)cc1 [Example 78, 2-Chloro-5-(4-dimethylamino-benzoyl)-benzenesulfonamide] |
